Consider 14 compounds from patent US20260091026A1, “METHODS OF TREATING INFLAMMATORY DISEASES” (INTERLINE THERAPEUTICS, INC., priority 2023, published 2026).

Like-named read-outs stand apart in the source and are kept apart here.

For one assay, the target named is T1, RIPK2 (KD)/XIAP (BIR2) (Homo sapiens, UniProt O43353).
T1 construct: made in house; host or cells: baculovirus-infected Sf9 cells
Put plainly: RIPK2-XIAP binding competition PPI assay (TR-FRET). As to conditions: for Emax / PPI Amax: 50 nM of GSK583 = -100% activity; for Emax: read-out: PPI Amax; for IC50: GST-RIPK2 / His-XIAP (BIR2)-avi, 120 min at 23° C. The text has this: The ability of selected compounds of Formula (I) to inhibit the binding of an His-XIAP (BIR2)-avi fusion protein to a GST-RIPK2 fusion protein was quantified employing the TR-FRET-based competition assay as described in the following paragraphs.
Recombinant fusion protein of N-terminal Glutathione-S-Transferase (GST) and a fragment of human RIPK2 (amino acids 1-310 of accession number 043353), expressed in baculovirus infected Sf9 cells, purified via glutathione affinity chromatography, was used as GST-RIPK2 fusion protein. Recombinant fusion protein of N-terminal 6xHistidine (His), a fragment of human XIAP (amino acids 152-231 of accession number P98170), and C-terminal avi tag, expressed in baculovirus infected Sf9 cells, purified via Nickel NTA affinity chromatography, was used as the His-XIAP (BIR2)-avi fusion protein.
For the assay, a working solution of 1 nM GST-RIPK2, 25 nM His-XIAP (BIR2)-avi, 6 nM Anti-His-XL665 […] (Revvity Catalogue No. 61HISXLB), and 0.5 nM Anti-GST-Tb(Revvity Catalogue No. 61GSTTLB) in 25 mM Tris-HCl 7.5, 0.5 mM ethylene glycol-bis(2-aminoethylether)-N,N,N′,N′-tetraacetic acid (EGTA), 10 mM magnesium chloride (MgCl2), 2.5 mM dithiothreitol (DTT), 0.01% (w/v) bovine serum albumin (BSA), 0.005% (w/v) Pluronic F-127 (Sigma), 0.5 mM sodium ortho-vanadate, 5 mM-Glycerophosphate disodium salt hydrate (BGP) was prepared. 50 nL of a 100-fold concentrated solution of each test compound in DMSO was dispensed via acoustic dispensing into a white low volume 384-well microtiter plate (Perkin Elmer Catalogue No. 6008280). Subsequently, 5 μL of the assay working solution were added.
The resulting mixture was incubated 120 min at 23° C. Subsequently, the amount of complex formed by the GST-RIPK2, XIAP (BIR2)-avi, Anti-His-XL665, and Anti-GST-Tb was evaluated by measurement of the resonance energy transfer from the Tb-cryptate to the XL665. Therefore, the fluorescence emissions at 520 nm and 665 nm after excitation at 337 nm were measured in a TR-FRET reader, e.g. a Pherastar FS(BMG Labtechnologies, Offenburg, Germany) or an Envision (PerkinElmer). The ratio of the emissions at 665 nm and at 520 nm was taken as the measure of the amount of the complex. The data were normalized (assay reaction without inhibitor=0% activity, 50 nM of GSK583=−100% activity).
(In TR-FRET formats the signal depends on donor and acceptor labels being close together.)

In assay [1] the test system is THP1-Dual cells, NF-κB pathway (SEAP). Put plainly: THP-1 Dual cell SEAP assay (L18-MDP stimulated). Format: cell-based. To be noted: 10 ng/mL L18-MDP, 20-24 h, SEAP readout, read-out: IFNγ THP1 IC50. On the procedure: THP1-Dual™ cells (InvivoGen Cat #thpd-nfis) allow simultaneous assessment of the NF-κB pathway, by monitoring the activity of secreted embryonic alkaline phosphatase (SEAP) as well as the IRF pathway, by assessing the activity of a secreted luciferase (Lucia). Cells were cultured according to manufacturers' recommendations. For the assay, cell concentration was adjusted to 7.14×10^5 cells/mL in assay media (RPMI 1640, 2 mM L-Glutamine, 25 mM HEPES, 10% fetal bovine serum (heat-inactivated for 30 min at 56° C.), Pen-Strep (100 U/mL)) and 35 μL of cell suspension (˜25,000 cells) per well were added to a flat bottom 384-well plate (white opaque). Plate was centrifuged at 300 g for 2 min, compounds were added in serial dilution series according to the plate layout (volumes ˜500 nL-0.0152 nL) and plate was incubated at 37° C. in 5% CO2 for 30 min. Using assay media, a L18-MDP stock solution, that results in a final concentration of 10 ng/mL L18-MDP in each well when adding 15 μL to each well, was prepared. 15 μL of L18-MDP stock solution was added to each well, while 15 μL of assay media was added to the negative control wells. Plates were subsequently incubated at 37° C. in 5% CO2 overnight (20-24 h).
For the SEAP assay: without disturbing the cells at the bottom of the well, 15 μL supernatant was transferred to a clear 384-well flat bottom plate and 35 μL QUANTI-Blue Solution per well was added. Following a 2 h incubation at 37° C., the optical density (OD) was measured at 620-655 nm using a microplate reader (PheraStar FS microplate reader with protocol for OD 620-655 nm).
Values of media-only wells were subtracted and % inhibition for each compound concentration relative to the DMSO/L18-MDP-treated controls was calculated. Inhibition values+/−SD were fitted by non-linear regression using Prism software (GraphPad PRISM Software) to calculate IC50 values.

T1 sequence (O43353 1-310): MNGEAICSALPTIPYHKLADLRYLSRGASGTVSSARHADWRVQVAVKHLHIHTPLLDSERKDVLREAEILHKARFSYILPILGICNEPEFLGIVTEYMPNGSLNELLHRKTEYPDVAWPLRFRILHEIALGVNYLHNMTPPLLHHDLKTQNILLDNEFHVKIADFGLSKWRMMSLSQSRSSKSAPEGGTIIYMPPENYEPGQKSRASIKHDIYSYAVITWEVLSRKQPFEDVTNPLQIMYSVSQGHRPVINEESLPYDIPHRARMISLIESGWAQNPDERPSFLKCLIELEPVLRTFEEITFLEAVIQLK

The term IC50 denotes the midpoint of a concentration-inhibition curve. Consider `COc1cc2ncc(-c3cc(C(=O)N[C@@H]4C[C@@H]4c4ccccc4)n(C)n3)n2cc1S(=O)(=O)C(C)(C)C` (single isomer, unassigned) [Example 30, cis-(1S,2S) or (1R,2R) 3-(6-(tert-butylsulfonyl)-7-methoxyimidazo[1,2-a]pyridin-3-yl)-1-methyl-N-(2-phenylcyclopropyl)-1H-pyrazole-5-carboxamide], for which, at RIPK2 (KD)/XIAP (BIR2), the Emax lay within 30 to 55% and the IC50 is over 1000 nM. The half-inhibitory concentration (IC50) in assay [1] (Homo sapiens) was over 2500 nM.
Take `COc1cc2ncc(-c3cc(C(=O)N[C@@H]4C[C@@H]4c4ccccc4)n(C)n3)n2cc1S(=O)(=O)C(C)(C)C` (single isomer, unassigned) [Example 31, cis-(1R,2R) or (1S,2S) 3-(6-(tert-butylsulfonyl)-7-methoxyimidazo[1,2-a]pyridin-3-yl)-1-methyl-N-(2-phenylcyclopropyl)-1H-pyrazole-5-carboxamide]: at RIPK2 (KD)/XIAP (BIR2), the “PPI Amax” value was “D (Amax of ≤30%)” and the IC50 was over 1000 nM. Moreover, the IC50 in assay [1] is over 2500 nM.
On to `COc1cc2ncc(-c3cc(C(=O)N[C@@H]4C[C@H]4c4ccccc4)n(C)n3)n2cc1S(=O)(=O)C(C)(C)C` (single isomer, unassigned) [Example 33, trans-(1R,2S) or (1S,2R) 3-(6-(tert-butylsulfonyl)-7-methoxyimidazo[1,2-a]pyridin-3-yl)-1-methyl-N-(2-phenylcyclopropyl)-1H-pyrazole-5-carboxamide], for which, at RIPK2 (KD)/XIAP (BIR2), the Emax was at least 80% and the IC50 fell in the range of 100 to 1000 nM. In addition, the IC50 in assay [1] (Homo sapiens) is over 2500 nM.
Consider `COc1cc2ncc(-c3cc(C(=O)N[C@@H]4C[C@H]4c4ccccc4)n(C)n3)n2cc1S(=O)(=O)C(C)(C)C` (single isomer, unassigned) [Example 34, trans-(1S,2R) or (1R,2S) 3-(6-(tert-butylsulfonyl)-7-methoxyimidazo[1,2-a]pyridin-3-yl)-1-methyl-N-(2-phenylcyclopropyl)-1H-pyrazole-5-carboxamide], for which, at RIPK2 (KD)/XIAP (BIR2), the “PPI Amax” value is reported as “A (Amax of ≥80%)” and the IC50 is over 1000 nM. Besides, the IC50 in assay [1] was over 2500 nM.
Take `COc1cc2ncc(-c3cc(C(=O)Nc4ccccc4)n(C)n3)n2cc1S(=O)(=O)C(C)(C)C` [Example 7, 3-(6-(tert-butylsulfonyl)-7-methoxyimidazo[1,2-a]pyridin-3-yl)-1-methyl-N-phenyl-1H-pyrazole-5-carboxamide]: on RIPK2 (KD)/XIAP (BIR2), the Emax is at least 80% and the IC50 is over 1000 nM. In addition, the IC50 in assay [1] (Homo sapiens) is over 2500 nM.
On the same counts, the results for `COc1cc2ncc(-c3cc(C(=O)N[C@@H](C)c4ccccc4)n(C)n3)n2cc1S(=O)(=O)C(C)(C)C` [Example 8, (S)-3-(6-(tert-butylsulfonyl)-7-methoxyimidazo[1,2-a]pyridin-3-yl)-1-methyl-N-(1-phenylethyl)-1H-pyrazole-5-carboxamide] are at least 80%, over 1000 nM and over 2500 nM.
On the same counts, the results for `COc1cc2ncc(-c3cc(C(=O)N[C@H](C)c4ccccc4)n(C)n3)n2cc1S(=O)(=O)C(C)(C)C` [Example 9, (R)-3-(6-(tert-butylsulfonyl)-7-methoxyimidazo[1,2-a]pyridin-3-yl)-1-methyl-N-(1-phenylethyl)-1H-pyrazole-5-carboxamide] are at least 80%, 10 to 100 nM and under 100 nM.
On the same counts, the results for `COc1cc2ncc(-c3cc(C(=O)N[C@H](C)c4ccccc4F)n(C)n3)n2cc1S(=O)(=O)C(C)(C)C` [Example 10, (R)-3-(6-(tert-butylsulfonyl)-7-methoxyimidazo[1,2-a]pyridin-3-yl)-N-(1-(2-fluorophenyl)ethyl)-1-methyl-1H-pyrazole-5-carboxamide] are at least 80%, 10 to 100 nM and 100 to 500 nM.
Turning to `COc1cc2ncc(-c3cc(C(=O)N[C@H](CO)c4ccccc4)n(C)n3)n2cc1S(=O)(=O)C(C)(C)C` [Example 11, (S)-3-(6-(tert-butylsulfonyl)-7-methoxyimidazo[1,2-a]pyridin-3-yl)-N-(2-hydroxy-1-phenylethyl)-1-methyl-1H-pyrazole-5-carboxamide], at RIPK2 (KD)/XIAP (BIR2), the Emax is at most 30% and the IC50 was over 1000 nM. In addition, the IC50 in assay [1] (Homo sapiens) was over 2500 nM.
On the same counts, the results for `COc1cc2ncc(-c3cc(C(=O)N[C@H](C)c4ccc(F)cc4)n(C)n3)n2cc1S(=O)(=O)C(C)(C)C` [Example 12, (R)-3-(6-(tert-butylsulfonyl)-7-methoxyimidazo[1,2-a]pyridin-3-yl)-N-(1-(4-fluorophenyl)ethyl)-1-methyl-1H-pyrazole-5-carboxamide] are at least 80%, 100 to 1000 nM and 500 to 2500 nM.
As to `COc1cc2ncc(-c3cc(C(=O)N[C@H](C)c4cccc(F)c4)n(C)n3)n2cc1S(=O)(=O)C(C)(C)C` [Example 13, (R)-3-(6-(tert-butylsulfonyl)-7-methoxyimidazo[1,2-a]pyridin-3-yl)-N-(1-(3-fluorophenyl)ethyl)-1-methyl-1H-pyrazole-5-carboxamide], on RIPK2 (KD)/XIAP (BIR2), the Emax is at least 80% and the IC50 was 100 to 1000 nM. The IC50 in assay [1] (Homo sapiens) was over 2500 nM.
On the same counts, the results for `COc1cc2ncc(-c3cc(C(=O)NCc4n[nH]c5ccccc45)n(C)n3)n2cc1S(=O)(=O)C(C)(C)C` [Example 14, N-((1H-indazol-3-yl)methyl)-3-(6-(tert-butylsulfonyl)-7-methoxyimidazo[1,2-a]pyridin-3-yl)-1-methyl-1H-pyrazole-5-carboxamide] are at least 80%, under 10 nM and 100 to 500 nM.
For `COc1cc2ncc(-c3cc(C(=O)NCc4nn(C)c5ccccc45)n(C)n3)n2cc1S(=O)(=O)C(C)(C)C` [Example 15, 3-(6-(tert-butylsulfonyl)-7-methoxyimidazo[1,2-a]pyridin-3-yl)-1-methyl-N-((1-methyl-1H-indazol-3-yl)methyl)-1H-pyrazole-5-carboxamide], in that order: 55 to 80%, 100 to 1000 nM and over 2500 nM.
For `COc1cc2ncc(-c3cc(C(=O)NCc4c5ccccc5nn4C)n(C)n3)n2cc1S(=O)(=O)C(C)(C)C` [Example 16, 3-(6-(tert-butylsulfonyl)-7-methoxyimidazo[1,2-a]pyridin-3-yl)-1-methyl-N-((2-methyl-2H-indazol-3-yl)methyl)-1H-pyrazole-5-carboxamide], in that order: 55 to 80%, over 1000 nM and over 2500 nM.
